According to patent US11414416B1, “Compounds and uses thereof” (Foghorn Therapeutics Inc., priority 2019, dated 2022):

Experiments:
BRD9 bromodomain = BRD9 bromodomain (Homo sapiens (Human), UniProt Q9H8M2); test: BRD9 bromodomain TR-FRET competition binding assay; conditions: Table 4; competition with biotinylated ligand, 3 nM Flag-BRD9, 90 minutes
Method in brief: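 TEV-cleaved Flag-BRD9 (P133-K239, 3 nM) competed against 3.75 nM biotinylated ligand, with 7.5 nM APC-streptavidin and 0.2 nM Eu-W1024 anti-FLAG, in HEPES pH 7.4, NaCl, TCEP, Tween-20, BSA. Compounds were serially diluted 3-fold; after 90 min at room temperature the 665/615 nm emission ratio was read.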

[1] = target: Nanoluciferase-BRD9 fusion protein (Homo sapiens (Human), UniProt Q9H8M2); test: SYO1 BRD9 NanoLuc degradation assay; assay type: cell-based; conditions: Table 5A, SYO-1 cells expressing 3×FLAG-NLuc-BRD9, 6 hours; for DC50: read-out: SYO1 BRD9-NanoLuc degradation IC50
Method in brief: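 Degradation was read as loss of nanoluciferase signal (Nano-Glo) after 6 h compound exposure in a stable SYO-1 line carrying 3×FLAG-NLuc-BRD9 (8000 cells/well). Normalised between DMSO (high) and a 1 μM known BRD9 degrader (low).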

Chain of Nanoluciferase-BRD9 fusion protein (Q9H8M2 whole entry, the tested form may be a part): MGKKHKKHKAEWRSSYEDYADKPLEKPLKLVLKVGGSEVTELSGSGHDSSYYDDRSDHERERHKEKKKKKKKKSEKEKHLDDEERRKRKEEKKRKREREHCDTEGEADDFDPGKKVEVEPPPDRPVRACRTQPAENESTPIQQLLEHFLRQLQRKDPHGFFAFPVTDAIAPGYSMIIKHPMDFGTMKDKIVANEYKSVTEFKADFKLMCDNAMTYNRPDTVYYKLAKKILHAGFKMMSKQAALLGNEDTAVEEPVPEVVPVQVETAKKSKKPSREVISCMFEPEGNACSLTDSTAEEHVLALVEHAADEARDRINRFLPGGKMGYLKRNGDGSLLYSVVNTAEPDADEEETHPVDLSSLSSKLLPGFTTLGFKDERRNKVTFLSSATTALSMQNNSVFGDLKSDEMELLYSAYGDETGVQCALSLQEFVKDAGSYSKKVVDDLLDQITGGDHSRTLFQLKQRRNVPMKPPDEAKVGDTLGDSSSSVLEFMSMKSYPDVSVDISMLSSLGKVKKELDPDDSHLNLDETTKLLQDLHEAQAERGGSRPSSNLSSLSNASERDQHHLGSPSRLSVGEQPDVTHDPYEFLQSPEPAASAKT
Chain of BRD9 bromodomain (Q9H8M2 133-239): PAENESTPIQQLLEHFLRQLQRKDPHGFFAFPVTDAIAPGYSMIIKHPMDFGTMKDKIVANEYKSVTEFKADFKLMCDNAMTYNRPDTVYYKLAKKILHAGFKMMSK

Row | IC50 (BRD9 bromodomain) | IC50 [1] | DC50 [1] | SMILES
1 | < 10 nM | < 10 nM |  | COc1cc(-c2cn(C)c(=O)c3cnccc23)cc(OC)c1CN(C)CC12CC(NC(=O)CCCCOc3cccc4c3C(=O)N(C3CCC(=O)NC3=O)C4=O)(C1)C2 (centres unmarked) [Compound D69, N-[3-[([[2,6-dimethoxy-4-(2-methyl-1-oxo-2,7-naphthyridin-4-yl)phenyl]methyl](methyl)amino)methyl]bicyclo[1.1.1]pentan-1-yl]-5-[[2-(2,6-dioxopiperidin-3-yl)-1,3-dioxoisoindol-4-yl]oxy]pentanamide]
2 | 10 to 100 nM | 10 to 100 nM |  | COc1cc(-c2cn(C)c(=O)c3cnccc23)cc(OC)c1CN(C)CCCOCCN1CCN(c2ccc3c(c2)C(=O)N(C2CCC(=O)NC2=O)C3=O)CC1 (centres unmarked) [Compound D70, 5-(4-[2-[3-([[2,6-dimethoxy-4-(2-methyl-1-oxo-2,7-naphthyridin-4-yl)phenyl]methyl](methyl)amino)propoxy]ethyl]piperazin-1-yl)-2-(2,6-dioxopiperidin-3-yl)isoindole-1,3-dione formic acid]
3 | < 10 nM | < 10 nM |  | COc1cc(-c2cn(C)c(=O)c3cnccc23)cc(OC)c1CN(C)C(=O)CCCCN1CCOC2(CCN(c3ccc4c(c3)C(=O)N(C3CCC(=O)NC3=O)C4=O)CC2)C1 (centres unmarked) [Compound D72, N-[[2,6-dimethoxy-4-(2-methyl-1-oxo-2,7-naphthyridin-4-yl)phenyl]methyl]-5-[9-[2-(2,6-dioxopiperidin-3-yl)-1,3-dioxoisoindol-5-yl]-1-oxa-4,9-diazaspiro[5.5]undecan-4-yl]-N-methylpentanamide formic acid]
4 | 10 to 100 nM | < 10 nM |  | COc1cc(-c2cn(C)c(=O)c3cnccc23)cc(OC)c1CN(C)CC(=O)NCCCCN1CCOC2(CCN(c3ccc4c(c3)C(=O)N(C3CCC(=O)NC3=O)C4=O)CC2)C1 (centres unmarked) [Compound D73, 2-([[2,6-dimethoxy-4-(2-methyl-1-oxo-2,7-naphthyridin-4-yl)phenyl]methyl](methyl)amino)-N-(4-[9-[2-(2,6-dioxopiperidin-3-yl)-1,3-dioxoisoindol-5-yl]-1-oxa-4,9-diazaspiro[5.5]undecan-4-yl]butyl)acetamide formic acid]
5 | 10 to 100 nM | 100 to 1000 nM |  | COc1cc(-c2cn(C)c(=O)c3cnccc23)cc(OC)c1CN1CC2(CCN(C(=O)CCOCCOc3cccc4c3C(=O)N(C3CCC(=O)NC3=O)C4=O)CC2)C1 (centres unmarked) [Compound D85]

Second part, the compound before the results:

Row | SMILES | IC50 (BRD9 bromodomain) | IC50 [1] | DC50 [1]
6 | COc1cc(-c2cn(C)c(=O)c3cnccc23)cc(OC)c1CN(C)CC(=O)NCCCC(=O)NC12CC(Nc3cccc4c3C(=O)N(C3CCC(=O)NC3=O)C4=O)(C1)C2 (centres unmarked) [Compound D71, 4-(2-((2,6-dimethoxy-4-(2-methyl-1-oxo-1,2-dihydro-2,7-naphthyridin-4-yl)benzyl) (methyl)amino)acetamido)-N-(3-((2-(2,6-dioxopiperidin-3-yl)-1,3-dioxoisoindolin-4-yl)amino)bicycle[1.1.1]pentan-1-yl)butanamide] | < 10 nM |  | < 10 nM
7 | COc1cc(-c2cn(C)c(=O)c3cnccc23)cc(OC)c1CNCCOCC(=O)N1CC(COc2ccc3c(c2)C(=O)N(C2CCC(=O)NC2=O)C3=O)C1 (centres unmarked) [Compound D74, 5-[(1-[2-[2-([[2,6-dimethoxy-4-(2-methyl-1-oxo-2,7-naphthyridin-4-yl)phenyl]methyl]amino)ethoxy]acetyl]azetidin-3-yl)methoxy]-2-(2,6-dioxopiperidin-3-yl)isoindole-1,3-dione formic acid] | < 10 nM |  | 100 to 1000 nM
8 | COc1cc(-c2cn(C)c(=O)c3cnccc23)cc(OC)c1CN1CC2(CCC2NC(=O)CCOCCOc2cccc3c2C(=O)N(C2CCC(=O)NC2=O)C3=O)C1 (centres unmarked) [Compound D84] | 10 to 100 nM | > 1000 nM | 
9 | COc1cc(-c2cn(C)c(=O)c3cnccc23)cc(OC)c1CN1CCC12CN(C(=O)CCOCCOc1cccc3c1C(=O)N(C1CCC(=O)NC1=O)C3=O)C2 (centres unmarked) [Compound D86] | 10 to 100 nM | 100 to 1000 nM | 
10 | COc1cc(-c2cn(C)c(=O)c3cnccc23)cc(OC)c1CN1CCC2(C1)CN(C(=O)CCOCCOc1cccc3c1C(=O)N(C1CCC(=O)NC1=O)C3=O)C2 (centres unmarked) [Compound D87] | < 10 nM |  | 10 to 100 nM
